Experimental findings from US5382670A, “Platelet activating factor antagonists” (priority 1993, dated 1995) are described below.

Molecules are shown by their SMILES. Counter-ions that a name gives are not always drawn.

As usually defined, the Ki is the equilibrium dissociation constant of an inhibitor or competing ligand from its target.

In the first test the target is PAF receptor (Oryctolagus cuniculus, UniProt G1TEI7). Kind of test: PAF receptor binding assay: inhibition of specific [3H]C18-PAF binding to rabbit platelet membranes. Particulars: 0.6 nM [3H]C18-PAF, 60 min, 22-23 °C, Ki from IC50 (Cheng and Prusoff), read-out: Ki (PAF Receptor Binding Activity). On the procedure: The ability of representative compounds of the present invention to inhibit PAF activity was determined in an in vitro test using the following method.
Chain of PAF receptor (G1TEI7 1-342): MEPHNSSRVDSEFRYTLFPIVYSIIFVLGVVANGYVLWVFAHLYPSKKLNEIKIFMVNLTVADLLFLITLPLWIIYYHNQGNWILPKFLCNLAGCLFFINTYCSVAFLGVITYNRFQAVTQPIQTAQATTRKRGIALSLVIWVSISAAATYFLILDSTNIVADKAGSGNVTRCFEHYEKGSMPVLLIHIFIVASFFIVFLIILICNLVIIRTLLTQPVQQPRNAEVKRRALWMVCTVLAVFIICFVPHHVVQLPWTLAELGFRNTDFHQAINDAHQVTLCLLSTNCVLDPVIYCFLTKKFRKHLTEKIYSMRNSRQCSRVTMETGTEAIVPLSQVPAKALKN
Citrated whole rabbit blood was obtained from Pel-Freez (Rogers, AR). Rabbit platelets were prepared by centrifugation and washing. The platelets were lysed by freeze-thawing and sonication; platelet membranes were prepared by centrifugation and washing. Final membrane preparations were stored frozen in 10 mM Tris/5 mM MgCl2 /2 mM EDTA (TME buffer, pH 7.0) with 0.25M sucrose added for membrane stabilization.
The standard PAF receptor binding assay contained 10 μg platelet membrane protein, 0.6 nM [^3 H]C18 -PAF (from Amersham or New England Nuclear; specific activity 120-180 Ci/mmol), with and without test compound, in "binding buffer" consisting of TME with 0.25% bovine serum albumin added (Sigma, RIA grade). The final volume of the assay was 100 μl. The assay was conducted in Millititre-GV™ (Millipore Corp.) filtration plates; incubation time was for 60 minutes at room temperature (22°-23° C.). "Specific binding" was operationally defined as the arithmetic difference between "total binding" of 0.6 nM [^3 H]C18 -PAF (in the abasence of added PAF) and "nonspecific binding" (in the presence of 1 μM PAF). After the prescribed incubation, platelet membranes were filtered under vacuum, and washed with 1 milliliter of "binding buffer". The filters were dried and removed. The bound radioactivity was quantitated with a Berthold TLC-Linear Analyzer model LB2842.
Dose-response curves of inhibition of specific [^3 H]C18 -PAF binding by test compounds were conducted in triplicate, with at least four doses covering the active range. Experiments were repeated at least once. IC50 values (concentration producing 50% inhibition) were determined by point-to-point evaluation. Ki values of inhibitory binding constants were calculated according to the method of Cheng and Prusoff [Biochem. Pharmacol. 22 (1973) 3099-3108] whereby [formula]
The values of Ki for representative compounds of the present invention appear in Table 1.
With `Cc1ccc2c(c1)c(C(=O)C1CSC(c3cccnc3)N1)c(C)n2C(=O)OC(C)(C)C` (centres unmarked) [Example 67, 1-tert-butoxycarbonyl-2,5-dimethyl-3-[2-[3-pyridinyl)thiazolid-4-oyl]indole oxalate], the Ki worked out at 39 nM. For `COc1cc(C(=O)c2cccc3c2ccn3C(=O)C2CSC(c3cccnc3)N2)cc(OC)c1OC` (centres unmarked) [Example 8, 1-[2-(3-pyridinyl)thiazolid-4-oyl]-4-(3,4,5-trimethoxybenzoyl)indole], the Ki came out at 4 nM. Same read-out and setting: under `CN(C)C(=O)n1cc(C(=O)C2CSC(c3cccnc3)N2)c2ccc(OCc3ccccc3)cc21` (centres unmarked) [Example 123, 1-dimethylcarbamoyl-3-[2-(3-pyridinyl)thiazolid-4-oyl]-6-phenylmethoxyindole oxalate] stands 2 nM; under `CC(C)(C)OC(=O)n1cc(C(=O)C2CSC(c3cccnc3)N2)c2cccc(OCc3ccccc3)c21` (centres unmarked) [Example 53, 1-tert-butoxycarbonyl-7-phenylmethoxy-3-[2-(3-pyridinyl)thiazolid-4-oyl]indole], 1 nM; under `O=C(C1CSC(c2cccnc2)N1)n1ccc2cc(OCc3ccccc3)ccc21` (centres unmarked) [Example 1, 1-[2-(3-pyridinyl)thiazolid-4-oyl]-5-phenylmethoxyindole], 7 nM. On the same count and under the same terms, in the case of `O=C(c1ccccc1)c1cccc2c1ccn2C(=O)C1CSC(c2cccnc2)N1` (centres unmarked) [Example 7, 1-[2-(3-pyridinyl)thiazolid-4-oyl]-4-benzoylindole dihydrochloride] it was 12 nM. Consider `CC(=O)N1C(C(=O)c2c[nH]c3ccccc23)CSC1c1cccnc1` (centres unmarked) [Example 98, 3-[2-(3-pyridinyl)-3-acetylthiazolid-4-oyl]indole], for which the Ki was found to be 18000 nM. Still for that read-out and setting: under `O=C(c1c[nH]c2ccc(OCc3ccccc3)cc12)C1CSC(c2cccnc2)N1` (centres unmarked) [Example 23, 3-(2-(3-pyridinyl)thiazolid-4-oyl])-5-phenylmethoxyindole oxalate] stands 23 nM.

For the molecule `CN(C)C(=O)n1cc(C(=O)C2CSC(c3cccnc3)N2C=O)c2ccc(OCc3ccccc3)cc21` (centres unmarked) [Example 93, 1-dimethylcarbamoyl-3-[2-(3-pyridinyl)-3-formylthiazolid-4-oyl]-6-phenylmethoxyindole], the inhibition constant (Ki) was 35 nM. Still for that read-out and setting: in the case of `O=C(c1c[nH]c2c(OCc3ccccc3)cccc12)C1CSC(c2cccnc2)N1` (centres unmarked) [Example 50, 7-phenylmethoxy-3-[2-(3-pyridinyl)thiazolid-4-oyl]indole] it was 1 nM. As for `Cc1ccc2c(c1)c(C(=O)C1CSC(c3cccnc3)N1)c(C)n2C(=O)N(C)C` (centres unmarked) [Example 69, 1-dimethylcarbamoyl-2,5-dimethyl-3-[2-(3-pyridinyl)thiazolid-4oyl]indole oxalate], the Ki was found to be 13 nM. Same read-out and setting: under `O=C(C1CSC(c2cccnc2)N1)n1ccc2cc(OCc3ccccc3)ccc21` (centres unmarked) [Example 11, 1-(2-(3-pyridinyl)thiazolid-4-oyl)-5-phenylmethoxyindole dihydrochloride] stands 15 nM; under `O=C(c1c[nH]c2cc(OCc3ccc(F)cc3)ccc12)C1CSC(c2cccnc2)N1` (centres unmarked) [Example 74, 3-[2-(3-pyridinyl)thiazolid-4-oyl]-6-(4-fluorophenylmethoxy)indole], 3 nM.

Still in this test, the particulars now being: Ki (PAF Receptor Binding Activity), 0.6 nM [3H]C18-PAF, 60 min, 22-23 °C, Ki from IC50 (Cheng and Prusoff).
In turn, `CN(C)C(=O)Cn1cc(C(=O)C2CSC(c3cccnc3)N2)c2ccccc21` (centres unmarked) [Example 116, 1-(N,N-dimethylcarbamoylmethyl)-3-[2-(3-pyridinyl)thiazolid-4-oyl]indole] showed an inhibition constant Ki of 7 nM. In turn, `O=C(C1CSC(c2cccnc2)N1)n1ccc2cccnc21` (centres unmarked) [Example 19, 1-[2-(3-pyridinyl)thiazolid-4-oyl]-7-azaindole] gave a Ki of 12500 nM. Take `Cc1ccc2c(C(=O)C3CSC(c4cccnc4)N3)c[nH]c2c1` (centres unmarked) [Example 80, 3-[2-(3-pyridinyl)thiazolid-4-oyl]-6-methylindole]: the affinity, expressed as Ki, was 3 nM.

Still in this test, the particulars now being: read-out: Ki (PAF Receptor Binding Activity), 0.6 nM [3H]C18-PAF, 60 min, 22-23 °C, Ki from IC50 (Cheng and Prusoff).
Regarding `NC(=O)CCn1cc(C(=O)C2CSC(c3cccnc3)N2)c2ccccc21` (centres unmarked) [Example 121], the Ki amounted to 6 nM.
